Test results reported in US8354451B2, “Treatment of microbial infections with compounds that inhibit 4-hydroxyphenylpyruvate dioxygenase” (The UWM Research Foundation, Inc., priority 2009, dated 2013).
Where two headings read alike, the source gives them in different places.

What was measured:
B. cenocepacia C5424 = format: cell-based, Burkholderia cenocepacia; settings: 24 h culture, OD597
Pseudomonas aeruginosa = assay: Murine model of systemic infection, intraperitoneal; settings: 1 mg/Kg NTBC daily

## O=C1CCCC(=O)C1C(=O)c1ccc(C(F)(F)F)cc1[N+](=O)[O-] [NTBC, 2-(2-nitro-4-trifluoromethylbenzoyl)-1,3-cyclohexanedione]
B. cenocepacia C5424; 10 μM NTBC
  pigment production relative to untreated C5424: 31.95±3.96%
B. cenocepacia C5424; 100 μM NTBC
  pigment production relative to untreated C5424: 26.89±0.59%
Pseudomonas aeruginosa
  time to return to normal growth (weight) after administration: ≤ 24 h
Pseudomonas aeruginosa; 3.2×10^8 CFU P. aeruginosa
  survival rate versus infected untreated mice: three-fold higher survival rate
